Results: US20090028888A1, “Cancer Antigen Mage-A9 and Uses Thereof” (priority 2005, published 2009)

Tests used:
[1] = test system: MAGE-A9 gene expression in bladder cancer cell lines; experiment: RT-PCR analysis of MAGE-A9 gene expression induction in bladder cancer cell lines; conditions: MGH-U3, 5637 and VMCUB-3; 1 μM 5-AZA-DC alone, 96 hours
CT genes = conditions: cited from earlier work; for expression of CT genes, combination with 5-AZA-DC: HDAC inhibitor combined with 5-AZA-DC

For `Nc1ncn([C@H]2C[C@H](O)[C@@H](CO)O2)c(=O)n1` [5-AZA-DC, 5-aza-2′-deoxycytidine], the “MAGE-A9 mRNA induction” value [1] is given as “strongly induced” and the “induction of the expression of several CT genes” value (CT genes; single agent) is given as “potent inducers”.

For `C/C=C1\NC(=O)[C@H]2CSSCC/C=C/[C@H](CC(=O)N[C@H](C(C)C)C(=O)N2)OC(=O)[C@H](C(C)C)NC1=O` [depsipetide], the “expression of CT genes, combination with 5-AZA-DC” value (CT genes) is given as “stronger expression”.

In the case of `CC(/C=C/C(=O)NO)=C\[C@@H](C)C(=O)c1ccc(N(C)C)cc1` [trichostatin A], the “expression of CT genes, combination with 5-AZA-DC” value (CT genes) is listed as “stronger expression”.
